In ChEMBL document CHEMBL5247610, “Discovery of 5-((4-(pyridin-3-yl)pyrimidin-2-yl)amino)-1H-indole-2-carboxamide derivatives as novel anti-cancer agents targeting Nur77” (Eur J Med Chem, 2022):
Calls of active or inactive are those of the source. No cut-off for these calls is given here.

Legend:
HeLa = assay: Antiproliferative activity against human HeLa cells assessed as cell viability at 10 uM incubated for 48 hrs by MTT assay; assay type: functional; settings: read-out: Activity
[1] = Cytotoxicity against human L02 cells assessed as cell viability at 10 uM incubated for 48 hrs by MTT assay; assay type: toxicity, cell-based; settings: read-out: Activity
Huh-7 = assay: Antiproliferative activity against human Huh-7 cells assessed as reduction in cell viability incubated for 48 hrs by MTT assay; assay type: functional, cell-based; settings: Huh-7, 48 h
MDA-MB-231 = assay: Antiproliferative activity against human MDA-MB-231 cells assessed as reduction in cell viability incubated for 48 hrs by MTT assay; assay type: functional, cell-based; settings: MDA-MB-231, 48 h
[2] = Cytotoxicity against human L02 cells assessed as reduction in cell viability incubated for 48 hrs by MTT assay; assay type: toxicity, cell-based
[3] = Selectivity index, ratio of IC50 for human L02 cells to IC50 for human Huh-7 cells by MTT assay; assay type: toxicity; settings: L02 cells versus Huh-7 cells, read-out: Ratio IC50
[4] = biological target: T1, Nuclear receptor subfamily 4immunitygroup A member 1 (Homo sapiens, UniProt P22736); assay: Binding affinity to Nur77 ligand binding domain (unknown origin) by fluorescence quenching assay
[5] = biological target: T1, Nuclear receptor subfamily 4immunitygroup A member 1; assay: Binding affinity to pBind-Nur77-LBD (unknown origin) transfected in HEK293T cells co-transfected with pG5-Luc assessed as inhibition of Nur77 transcriptional activity by measuring inhibition of Nur77-driven luciferase activity incubated for 12 hrs by luciferase reporter gene assay; assay type: cell-based; settings: filed as modulator, dose 1.25-5 µM
[6] = biological target: T2, Peroxisome proliferator-activated receptor gamma (Homo sapiens) (UniProt P37231); assay: Binding affinity to pBind-PPARgamma-LBD (unknown origin) transfected in HEK293T cells co-transfected with pG5-Luc at 5 uM incubated for 12 hrs by luciferase reporter gene assay; assay type: cell-based
T2 sequence (whole entry): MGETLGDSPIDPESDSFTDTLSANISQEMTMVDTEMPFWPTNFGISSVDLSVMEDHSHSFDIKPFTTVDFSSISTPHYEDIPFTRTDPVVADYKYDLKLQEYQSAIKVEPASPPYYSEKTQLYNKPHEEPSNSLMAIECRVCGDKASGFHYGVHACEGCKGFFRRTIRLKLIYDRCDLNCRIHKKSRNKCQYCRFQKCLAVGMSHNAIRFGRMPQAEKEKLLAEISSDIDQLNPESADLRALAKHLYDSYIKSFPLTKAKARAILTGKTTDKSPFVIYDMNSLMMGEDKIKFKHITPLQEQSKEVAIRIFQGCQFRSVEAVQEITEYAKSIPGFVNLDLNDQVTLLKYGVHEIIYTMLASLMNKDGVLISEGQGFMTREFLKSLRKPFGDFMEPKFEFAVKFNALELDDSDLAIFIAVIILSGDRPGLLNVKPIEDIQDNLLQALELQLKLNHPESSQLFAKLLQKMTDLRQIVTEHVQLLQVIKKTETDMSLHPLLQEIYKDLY

HepG2 [7] = assay: Induction of apoptosis in human HepG2 cells transfected with Nur77 siRNA assessed as induction of PARP cleavage at 10 to 15 uM incubated for 12 hrs by western blot analysis; assay type: functional, cell-based; settings: dose 10-15 µM
HepG2 [8] = assay: Induction of apoptosis in Nur77 overexpressing human HepG2 cells transfected with Myc-Nur77 assessed as induction of PARP cleavage at 5 uM incubated for 12 hrs by western blot analysis; assay type: functional, cell-based
HepG2 [9] = assay: Induction of apoptosis in human HepG2 cells assessed as viable cells at 10 uM incubated for 12 hrs by AnnexinV-FITC/PI staining based flow cytometry (reference value: 96.32%); assay type: functional; settings: read-out: Activity
HepG2 [10] = assay: Induction of apoptosis in human HepG2 cells assessed as late apoptotic cells at 10 uM incubated for 12 hrs by AnnexinV-FITC/PI staining based flow cytometry (reference value: 1.91%); assay type: functional
HepG2 [11] = assay: Induction of apoptosis in human HepG2 cells transfected with Nur77 siRNA assessed as viable cells at 10 uM incubated for 12 hrs by AnnexinV-FITC/PI staining based flow cytometry (reference value: 96.34%); assay type: functional; settings: read-out: Activity
HepG2 [12] = assay: Induction of apoptosis in human HepG2 cells transfected with Nur77 siRNA assessed as late necrotic cells at 10 uM incubated for 12 hrs by AnnexinV-FITC/PI staining based flow cytometry (reference value: 0.3%); assay type: functional
HepG2 [13] = assay: Induction of apoptosis in human HepG2 cells assessed as mitochondrial membrane potential loss by measuring proportion of cells with depolarized MMP at 10 uM incubated for 12 hrs by JC-1 staining based flow cytometry (reference value: 5.81%); assay type: functional
HepG2 [14] = assay: Induction of apoptosis in human HepG2 cells transfected with Nur77 siRNA assessed as mitochondrial membrane potential loss by measuring proportion of cells with depolarized MMP at 10 uM incubated for 12 hrs by JC-1 staining based flow cytometry (reference value: 5.81%); assay type: functional
[15] = biological target: T1, Nuclear receptor subfamily 4immunitygroup A member 1; assay: Modulation of Myc-Nur77 (unknown origin) transfected in HEK293T cells assessed as induction of Nur77 translocation from nucleus to cytoplasm at 10 uM incubated for 2 to 4 hrs by western blot analysis; assay type: cell-based; settings: filed as modulator, time 2-4 hrs
[16] = biological target: T1, Nuclear receptor subfamily 4immunitygroup A member 1; assay: Modulation of Myc-Nur77-LBD (unknown origin) transfected in human HepG2 cells assessed as induction of Nur77 translocation from nucleus to mitochondria at 10 uM incubated for 3 hrs by confocal microscopy; settings: filed as modulator
HepG2 [17] = assay: Antitumor activity against human HepG2 cells xenografted in BALB/c nude mouse assessed as inhibition of tumor weight at 50 mg/kg, ip administered once every day for 14 days; assay type: functional, organism-based; settings: time 14.0 day
HepG2 [18] = assay: Antitumor activity against human HepG2 cells xenografted in BALB/c nude mouse assessed as inhibition of tumor volume at 50 mg/kg, ip administered once every day for 14 days; assay type: functional, organism-based; settings: time 14.0 day
[19] = Toxicity in BALB/c nude mouse xenografted with human HepG2 cells assessed as body weight loss at 50 mg/kg, ip administered once every day for 14 days; assay type: organism-based; settings: in vivo, 336 h, time 14 day
HepG2 [20] = assay: Antitumor activity against human HepG2 cells xenografted in BALB/c nude mouse assessed as increase in cleaved caspase 3 expression in tumor tissues at 50 mg/kg, ip administered once every day for 14 days by immunohistochemistry analysis; assay type: functional, organism-based; settings: time 14.0 day
HepG2 [21] = assay: Antitumor activity against human HepG2 cells xenografted in BALB/c nude mouse assessed as decrease in Ki67 expression in tumor tissues at 50 mg/kg, ip administered once every day for 14 days by immunohistochemistry analysis; assay type: functional, organism-based; settings: time 14.0 day
[22] = Toxicity in BALB/c nude mouse xenografted with human HepG2 cells assessed as effect on heart damage at 50 mg/kg ip administered once every day for 14 days by H and E staining based analysis; assay type: organism-based; settings: in vivo, 336 h, time 14 day

T1 sequence (P22736 whole entry, the tested form may be a part): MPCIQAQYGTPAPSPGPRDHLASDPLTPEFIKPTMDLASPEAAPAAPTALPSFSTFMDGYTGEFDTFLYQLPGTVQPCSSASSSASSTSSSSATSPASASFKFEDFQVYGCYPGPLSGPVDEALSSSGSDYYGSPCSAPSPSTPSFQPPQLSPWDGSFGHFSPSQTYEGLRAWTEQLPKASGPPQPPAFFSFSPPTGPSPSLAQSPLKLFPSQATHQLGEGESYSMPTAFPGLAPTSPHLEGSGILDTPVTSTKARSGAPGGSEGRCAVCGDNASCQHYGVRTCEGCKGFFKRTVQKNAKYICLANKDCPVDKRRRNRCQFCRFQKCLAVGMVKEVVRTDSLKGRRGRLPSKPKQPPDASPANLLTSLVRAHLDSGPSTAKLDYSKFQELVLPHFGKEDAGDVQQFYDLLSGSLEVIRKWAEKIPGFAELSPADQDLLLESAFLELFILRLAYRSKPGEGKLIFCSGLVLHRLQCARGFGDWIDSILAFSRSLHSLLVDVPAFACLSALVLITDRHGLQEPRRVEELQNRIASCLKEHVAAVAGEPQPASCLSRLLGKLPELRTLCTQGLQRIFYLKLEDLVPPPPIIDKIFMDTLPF

For `CN(C)CCCNC(=O)c1cc2cc(Nc3nccc(-c4cccnc4)n3)ccc2[nH]1`, the viability at 10 µM (HeLa) was 19.4%, the viability at 48 h, 10 µM [1] was 53.4% and the IC50 (Huh-7) was 3.58 µM. For the same molecule, the IC50 (MDA-MB-231) was 3.24 µM, the IC50 at 48 h [2] was 11.2 µM and the selectivity ratio [3] was 3.14. The Kd [4] was 0.121 µM, the Activity [5] was “Dose-Dependent Effect” and the Activity [6] was “inactive”. The Activity (HepG2 [7]) was “inactive”, the Activity (HepG2 [8]) was “Active” and the viability at 10 µM (HepG2 [9]) was 72.7%. For the same molecule, the Activity (HepG2 [10]) was 8.01%, the viability at 10 µM (HepG2 [11]) was 95.1% and the Activity (HepG2 [12]) was 0.75%. For the same molecule, the Activity (HepG2 [13]) was 21.34%, the Activity (HepG2 [14]) was 8.91% and the Activity [15] was “Active”. For the same molecule, the Activity [16] was “Active”, the Activity (HepG2 [17]) was “Active” and the Activity (HepG2 [18]) was “Active”. The Activity [19] was “Non-Toxic”, the Activity (HepG2 [20]) was “Active” and the Activity (HepG2 [21]) was “Active”. The Activity [22] was “Non-Toxic”.
